Laboratory results reported in patent publication US5393775A, “Benzopyran compounds” (Adir et Compagnie, priority 1992, dated 1995).

What was measured:
[1] = system: rat brain homogenates (peroxidation induced by the Fe^2+ /ascorbate system); assay: lipid peroxidation induced by Fe^2+/ascorbate on rat brain homogenates; format: biochemical; settings: at 10^-5 M, 60 minutes at 37° C.
Protocol: (§1) The action of the compounds of the invention, which are capable of trapping .OH radicals, was studied, on the one hand, on the spontaneous peroxidation of lipids and, on the other hand, on the peroxidation induced by the Fe^2+ /ascorbate (10 μm/250 μm) system on rat brain homogenates.
(§2) During the measurement of the spontaneous lipid peroxidation, the rat brain homogenates are placed in the presence or in the absence of the compounds to be tested for 60 minutes at 37° C. The reaction is halted at 0° C. and the quantitative determination of malondialdehyde is carried out using thiobarbituric acid by the method of Yagi, K., (1976), Biochem. Med., 15, 212-216. Lipid peroxidation is determined by the substances reacting with thiobarbituric acid expressed in nanomoles of malondialdehyde.
During the measurement of the induced lipid peroxidation, the methodology is identical to the above with the exception of the addition to the homogenate of the radical inductive system: Fe^2+ /ascorbate. The reference substances are probucol and vitamin E.
(§3) The concentrations of the tested compounds which inhibit by 50 % the peroxidation of the substrate or the antioxidizing activity of the compounds of the invention at a concentration of 10^-5 M are calculated.

[2] = system: lipoxygenase of human polynuclear cells (LTB4); assay: inhibition of the synthesis of LTB4 (lipoxygenase) in human polynuclear cells activated by A23187; format: cell-based; settings: for inhibition at 10 µM: at 10^-5 M; for IC50: read-out: INHIBITION OF THE SYNTHESIS OF LTB4, CON[…] BY 50% (IC50 in M), read-out: INHIBITION OF THE SYNTHESIS OF LTB4, CONCENTRATION INHIBITING SYNTHESIS BY 50% (IC50 in M)
Protocol: The inhibitory activity of the compounds of formula (I) used according to the invention on the synthesis of eicosanoids is measured on washed human polynuclear cells, in the presence or in the absence of the compound to be tested, after activation of these cells by calcium (calcium ionophore A23187).
The production of the main eicosanoid, resulting from lipoxygenase, produced by human polynuclear cells: leukotriene B4 (LTB4), is measured by a radioimmunological test.

[3] = system: rat brain homogenates (spontaneous peroxidation of lipids); assay: spontaneous lipid peroxidation on rat brain homogenates; format: biochemical; settings: at 10^-5 M, 60 minutes at 37° C.
Protocol: as §1, §2, §3

Structure (SMILES) | INHIBITION OF THE PEROXIDATION WITH RESPECT TO THE CONTROL, INDUCED PEROXIDATION [1] | inhibition at 10 µM [2] | IC50 [2] | INHIBITION OF THE PEROXIDATION WITH RESPECT TO THE CONTROL, SPONTANEOUS PEROXIDATION [3]
Cc1c(C)c2c(c(C)c1O)CCC(C)(C(=S)Nc1ccccc1)O2 (stereo not drawn) [Example 2, N-phenyl-6-hydroxy-3,4-dihydro-2,5,7,8-tetramethyl-2H-1-benzopyran-2-thiocarboxamide] | 100 | > 99% | 0.3 µM | 100
Cc1cc(C)c(NC(=S)C2(C)CCc3c(C)c(O)c(C)c(C)c3O2)cc1C (stereo not drawn) [Example 4, N-(2,4,5-trimethylphenyl)-6-hydroxy-3,4-dihydro-2,5,7,8-tetramethyl-2H-1-benzopyran-2-thiocarboxamide] | 100 | > 99% | 0.5 µM | 98
Cc1cc(C)nc(NC(=S)C2(C)CCc3c(C)c(O)c(C)c(C)c3O2)c1 (stereo not drawn) [Example 6, N-(4,6-dimethylpyrid-2-yl)-6-hydroxy-3,4-dihydro-2,5,7,8-tetramethyl-2H-1-benzopyran-2-thiocarboxamide] |  | > 99% | 0.6 µM | 
COc1cc(NC(=S)C2(C)CCc3c(C)c(O)c(C)c(C)c3O2)cc(OC)c1OC (stereo not drawn) [Example 8, N-(3,4,5-trimethoxyphenyl)-6-hydroxy-3,4-dihydro-2,5,7,8-tetramethyl-2H-1-benzopyran-2-thiocarboxamide] |  | > 99% |  | 
Cc1cccc(C)c1NC(=S)C1(C)CCc2c(C)c(O)c(C)c(C)c2O1 (stereo not drawn) [Example 26, N-(2,6-dimethylphenyl)-6-hydroxy-3,4-dihydro-2,5,7,8-tetramethyl-2H-1-benzopyran-2-thiocarboxamide] | 100 | > 99% | 0.5 µM | 99
Cc1c(C)c2c(c(C)c1O)CCC(C)(C(=S)N1CCN(c3ccccc3)CC1)O2 (stereo not drawn) [Example 84, 1-[(3,4-dihydro-6-hydroxy-2,5,7,8-tetramethyl-2H-1-benzopyran-2-yl)thiocarbonyl]-4-phenylpiperezine] |  | > 99% | 0.3 µM | 
Cc1c(C)c2c(c(C)c1O)CCC(C)(C(=S)N1CCN(c3ccccn3)CC1)O2 (stereo not drawn) [Example 86, 1-[(3,4-dihydro-6-hydroxy-2,5,7,8-tetramethyl-2H-1-benzopyran-2-yl)thiocarbonyl]-4-(2-pyridyl)piperazine] |  | > 99% | 0.2 µM | 
Cc1c(C)c2c(c(C)c1O)CCC(C)(C(=S)N1CCN(c3ccc(F)cc3)CC1)O2 (stereo not drawn) [Example 88, 1-[(3,4-dihydro-6-hydroxy-2,5,7,8-tetramethyl-2H-1-benzopyran-2-yl)thiocarbonyl]-4-(4-fluorophenyl)piperazine] |  | > 99% | 0.1 µM | 
Cc1c(C)c2c(c(C)c1O)CCC(C)(C(=S)N1CCN(c3ccc(Cl)cc3)CC1)O2 (stereo not drawn) [Example 92, 1-[(3,4-dihydro-6-hydroxy-2,5,7,8-tetramethyl-2H-1-benzopyran-2-yl)thiocarbonyl]-4-(4-chlorophenyl)piperazine] |  | > 99% | 0.2 µM | 
COc1ccc(CN2CCN(C(=S)C3(C)CCc4c(C)c(O)c(C)c(C)c4O3)CC2)c(OC)c1OC (stereo not drawn) [Example 94, 1-[(3,4-dihydro-6-hydroxy-2,5,7,8-tetramethyl-2H-1-benzopyran-2-yl)thiocarbonyl]-4-(2,3,4-trimethoxybenzyl)piperazine] |  | > 99% | 0.3 µM | 
Cc1c(C)c2c(c(C)c1O)CCC(C)(C(=S)N1CCN(C(O)(c3ccccc3)c3ccccc3)CC1)O2 (stereo not drawn) [Example 98, 1-[(3,4-dihydro-6-hydroxy-2,5,7,8-tetramethyl-2H-1-benzopyran-2-yl)thiocarbonyl]-4-(1-hydroxy-1,1-diphenylmethyl)piperazine] |  | > 99% | 1.3 µM | 
